This is an account of results in US6174897A, “Bis-(quinolyl)-diamines” (Bayer Aktiengesellschaft, priority 1996, dated 2001).

Molecules are shown by their SMILES.

Assay [1] relates to apamin-sensitive potassium channels (PC12 cells). The assay can be described thus: Non-radioactive Rb+ efflux assay in PC12 cells. It is filed as cell-based. As for the experimental part: 2) Non-radioactive Rb^+ Efflux Assay for the Identification of Potassium Channel Modulators
The cellular potassium in PC12 cells is exchanged with rubidium, which is not present in the cells. This exchange is performed by incubating the cells over a period of 4 h in a physiological buffer containing 5.4 mM RbCl without KCl. This rubidium subsequently serves as a tracer for potassium. The cells laden with Rb^+ in this way are washed three times and then stimulated by depolarization with 50 mM KCl to open potassium channels (10 min), causing Rb^+ to flow out of the cells into the supernatant according to the concentration gradient.
The rubidium contents in the cell supernatant and in the residual cells after they have been lysed with 1% Triton X-100 are then determined by means of atomic absorption spectroscopy. The relative proportion of rubidium in the cell supernatent (=Rb^+ efflux) is used as a measure of the potassium channel activity.
The effect of substances on the channel activity is measured by co-incubating the test substance over the ten-minute stimulation period and determining its effect on the Rb^+ efflux in the manner described above.

For assay [2], the target named is apamin binding sites / apamin receptors (bovine cerebral membrane, calf hippocampus). The assay can be described thus: Binding of 125I-apamin to bovine cerebral membrane. The note with it: 125I-apamin 30 pM, calf hippocampus membranes. As for the experimental part: 1) Binding of ^125 1I-apamine to Bovine Cerebral Membrane
Calf brains were obtained from the local abattoir. The hippocampus was prepared on ice and a membrane suspension was made up by homogenization twice in buffer (100 mM Tris-HCl, KCl 5 mM, pH 7.4) and centrifugation at 43,000×g. In a total volume of 500 μl, the incubation mixture contained 200 μg of membrane protein, 30 pM ^125 I-apamin and test substances in the concentration range 1×10^-9 to 1×10^-4 M. The non-specific binding of ^125 I-apamine was determined in the presence of 1×10^-7 M unlabelled apamin.
After preincubation for 30 min at room temperature (test substances and membrane homogenate), the samples were placed on ice for 10 min before the radioligand was added. The main incubation time was 60 min on ice. When the reaction time had elapsed, an excess of ice-cooled incubation buffer was added to each sample and the mixture was filtered with suction through cellulose acetate/nitrate membrane filters. The amount of bound ^125 I-apamin was measured with a gamma counter.

On to `CCc1cc(NCCCCCNc2cc(CC)nc3ccccc23)c2ccccc2n1` [Example 1], for which, in assay [1] (test concentration of 10 μM), the “% inhibition of the Rb efflux” value was determined as 77%. In assay [2], the Ki (as a rule, a dissociation constant, usually derived from enzyme kinetics or from competition with a known ligand) worked out at 17 nM.

In assay [2], `CCCc1cc(NCCCCCNc2cc(CCC)nc3ccccc23)c2ccccc2n1` [Example 2] displayed a Ki of 13 nM.

For `Cc1cccc2c(NCCCCCNc3cc(C(C)C)nc4c(C)cccc34)cc(C(C)C)nc12` [Example 4], the “% inhibition of the Rb efflux” value was found to be 68% in assay [1] (at 1 μM) and 75% in assay [1] (test concentration of 10 μM).
